Assay results published in patent US20100179158A1, “INHIBITORS OF CYCLIC AMP PHOSPHODIESTERASES” (priority 2007, published 2010).

Target: T1, PDE4A5 (Rattus norvegicus, UniProt P54748)
T1 construct: targets used in the assays are full-length proteins (as opposed to simply the catalytic domain); expressed in transfected cells; host or cells: Schizosaccharomyces pombe, gene integrated at the cgs2 locus
T1 sequence (P54748 1-844): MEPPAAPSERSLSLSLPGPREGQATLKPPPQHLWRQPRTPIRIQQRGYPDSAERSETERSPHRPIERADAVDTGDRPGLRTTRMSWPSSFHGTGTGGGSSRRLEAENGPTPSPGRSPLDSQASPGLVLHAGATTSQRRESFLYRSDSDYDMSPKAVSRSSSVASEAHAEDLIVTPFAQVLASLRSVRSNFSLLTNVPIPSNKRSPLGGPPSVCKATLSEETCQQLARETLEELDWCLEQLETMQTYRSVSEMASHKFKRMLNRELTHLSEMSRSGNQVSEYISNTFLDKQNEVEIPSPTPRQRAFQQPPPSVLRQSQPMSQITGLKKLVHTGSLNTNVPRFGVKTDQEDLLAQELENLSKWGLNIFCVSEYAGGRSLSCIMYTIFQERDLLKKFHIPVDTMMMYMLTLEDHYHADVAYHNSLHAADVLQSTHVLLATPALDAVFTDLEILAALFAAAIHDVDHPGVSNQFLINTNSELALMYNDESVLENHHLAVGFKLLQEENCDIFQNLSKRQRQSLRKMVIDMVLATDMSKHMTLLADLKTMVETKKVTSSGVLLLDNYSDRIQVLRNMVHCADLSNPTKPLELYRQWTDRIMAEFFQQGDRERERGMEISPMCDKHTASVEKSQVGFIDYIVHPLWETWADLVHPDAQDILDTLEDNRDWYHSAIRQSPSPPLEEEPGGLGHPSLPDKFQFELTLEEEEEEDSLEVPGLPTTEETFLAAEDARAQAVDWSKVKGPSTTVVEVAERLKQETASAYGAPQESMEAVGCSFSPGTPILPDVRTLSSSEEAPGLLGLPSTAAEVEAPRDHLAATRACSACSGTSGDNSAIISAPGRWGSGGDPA
Assay: Fission yeast 5FOA growth assay, strain expressing PDE4A5
Format: cell-based
Settings: 5FOA growth screen; for 2 Assay (2 uM), PDE 4A5: 2 uM compound; for 1 Assay (20 uM), PDE 4A5: 20 uM compound
Description: High throughput drug screens were carried out at the Broad Institute's Chemical Biology Program screening facility (Broad Institute, Cambridge, Mass.). Depending upon the strain, cultures were pregrown to exponential phase in EMM complete medium containing from 0.5 to 2.5 mM cAMP to repress fbp1-ura4 transcription. Cells were collected by centrifugation, resuspended in 5FOA medium, and 25 μl were transferred to 384-well microtiter dishes (untreated, with flat clear bottoms) that had been pre-filled with 25 μl 5FOA medium and pre-pinned with 100 nl of compounds (stock solutions were generally 10 mM) from a subset of the Prestwick Bioactive and the Microsource Spectrum compound libraries. Starting cell concentrations ranged from 0.5×10^5 to 4×10^5 cells/ml depending on the screening strain. […] Other positive control dishes contained 5 mM cAMP in the 5FOA medium. Cultures were grown for 48 hours at 30° C., sealed in an airtight container with moist paper towels to prevent evaporation. Optical densities (OD600) of cultures were measured using a microplate reader. Bioinformatic analysis of the results to determine composite Z scores was performed as previously described^30, 31.
Cells were pregrown in EMM medium [MP Biomedicals (Solon, OH), 3% glucose, filter-sterilized to avoid carmelization, which would introduce variability into the optical density of the medium] containing from 0 mM to 2.5 mM cAMP (or either 0.5 mM or 1.0 mM cGMP). This was to repress expression of the fbp1-ura4 reporter prior to exposure of cells to 5FOA medium. Cells were grown at 30° C. to exponential phase (approximately 10^7 cells/ml). Cells were collected by centrifugation and resuspended in 5FOA medium, and 25 μl were transferred to 384-well microtiter dishes (untreated, with flat clear bottoms) that had been pre-filled with 25 μl 5FOA medium and pre-pinned with 100 nl of compounds (stock solutions were generally 10 mM). Starting cell concentrations ranged from 0.5×10^5 to 4×10^5 cells/ml depending on the screening strain. […] Other positive control dishes contained 5 mM cAMP in the 5FOA medium for PDEs that lack appropriate control compounds. Cultures were grown for 48 hours at 30° C., sealed in an airtight container with moist paper towels to prevent evaporation. Optical densities (OD600) of cultures were measured using a microplate reader. Bioinformatic analysis of the results to determine composite Z scores was performed as previously described (1, 3).

Structure (SMILES)	2 Assay (2 uM), PDE 4A5	1 Assay (20 uM), PDE 4A5
COC(=O)C1=C(C)N(c2ccccc2Cl)C(=O)/C1=C\c1cccs1 [Compound 27]	12.63	65.67
COC(=O)C1=C(C)N(c2ccc(C(C)C)cc2)C(=O)/C1=C\c1cccs1 [2008, O19]	–	1.73 ND ND ND ND
COC(=O)C1=C(C)N(c2ccccc2F)C(=O)/C1=C\c1cccc(OC)c1O [2008, C21]	–	1.80 ND ND ND ND
COC(=O)C1=C(C)N(C2CCCCC2)C(=O)/C1=C\c1cccs1 [Compound 22]	13.66	−0.06
COC(=O)C1=C(C)N(c2ccccc2)/C(=C/c2cccs2)C1=O [2008, K19]	–	−0.06 ND ND ND ND
Cc1ccc2c(c1)c1nc3ccccc3nc1n2C(C)C [Compound 41]	–	84.08
